Measurements from ChEMBL document CHEMBL1201862, “PubChem BioAssay data set” (2004).
Each block holds one compound with its values, some of them ahead of it. The source made the active and inactive calls.

Columns and labels:
[1] = molecular target: Aspartyl aminopeptidase (Plasmodium falciparum 3D7, UniProt Q8I2J3)
[2] = molecular target: Procathepsin L (Homo sapiens, UniProt P07711)
[3] = molecular target: T1, Zinc finger protein mex-5 (Caenorhabditis elegans, UniProt Q9XUB2); assay: potency of MEX-5 RNA-binding blockers – biochemical, C. elegans, fluorescence polarization, dose response (AID 1960)
T1 sequence (Q9XUB2 whole entry): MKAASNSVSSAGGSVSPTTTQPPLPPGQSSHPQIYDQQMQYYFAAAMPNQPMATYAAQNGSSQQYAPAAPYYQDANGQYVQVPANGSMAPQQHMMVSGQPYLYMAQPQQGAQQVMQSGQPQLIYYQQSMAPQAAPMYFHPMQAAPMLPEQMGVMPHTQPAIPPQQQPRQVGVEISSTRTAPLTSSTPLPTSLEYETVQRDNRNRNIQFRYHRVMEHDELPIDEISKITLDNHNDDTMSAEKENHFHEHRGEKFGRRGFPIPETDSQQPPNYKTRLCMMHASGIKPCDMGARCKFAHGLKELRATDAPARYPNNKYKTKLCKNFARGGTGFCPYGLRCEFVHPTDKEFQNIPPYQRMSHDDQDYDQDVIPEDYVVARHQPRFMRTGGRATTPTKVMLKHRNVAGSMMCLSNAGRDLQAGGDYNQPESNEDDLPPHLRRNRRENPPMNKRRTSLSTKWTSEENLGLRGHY

[4] = molecular target: Large T antigen (Simian virus 40, UniProt P03070); format: functional, Betapolyomavirus macacae;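 further: Confirmatory-stage PubChem screen for compounds that inhibit SV40 T antigen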
[5] = molecular target: T2, RNA-binding protein pos-1 (Caenorhabditis elegans, UniProt G5EF15); assay: disruptors of C. elegans POS-1 RNA interaction – biochemical, fluorescence polarization, dose response (AID 1964);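 further: purified POS-1 fused to maltose binding protein made in E. coli; potency of compounds blocking POS-1 binding to fluorescent RNA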
T2 sequence (G5EF15 whole entry): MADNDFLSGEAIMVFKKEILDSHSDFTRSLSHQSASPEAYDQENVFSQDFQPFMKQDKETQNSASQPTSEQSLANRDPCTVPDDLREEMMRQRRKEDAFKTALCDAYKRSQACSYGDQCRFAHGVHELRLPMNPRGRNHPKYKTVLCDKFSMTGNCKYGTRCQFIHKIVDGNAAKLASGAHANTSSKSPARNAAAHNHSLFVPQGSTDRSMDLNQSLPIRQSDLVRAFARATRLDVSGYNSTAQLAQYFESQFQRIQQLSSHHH

[6] = system: HEK293; assay: cells; conditions: Homo sapiens;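 further: cells exposed to compound for 14 hours overnight before viability readout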
[7] = molecular target: Nucleotide-binding oligomerization domain-containing protein 1 (Homo sapiens, UniProt Q9Y239); assay: blockers of NOD1 pathway activity – revised, SAR follow-up (AID 2333); format: functional
Nucleotide-binding oligomerization domain-containing protein 1, sequence (Q9Y239 whole entry, the tested form may be a part): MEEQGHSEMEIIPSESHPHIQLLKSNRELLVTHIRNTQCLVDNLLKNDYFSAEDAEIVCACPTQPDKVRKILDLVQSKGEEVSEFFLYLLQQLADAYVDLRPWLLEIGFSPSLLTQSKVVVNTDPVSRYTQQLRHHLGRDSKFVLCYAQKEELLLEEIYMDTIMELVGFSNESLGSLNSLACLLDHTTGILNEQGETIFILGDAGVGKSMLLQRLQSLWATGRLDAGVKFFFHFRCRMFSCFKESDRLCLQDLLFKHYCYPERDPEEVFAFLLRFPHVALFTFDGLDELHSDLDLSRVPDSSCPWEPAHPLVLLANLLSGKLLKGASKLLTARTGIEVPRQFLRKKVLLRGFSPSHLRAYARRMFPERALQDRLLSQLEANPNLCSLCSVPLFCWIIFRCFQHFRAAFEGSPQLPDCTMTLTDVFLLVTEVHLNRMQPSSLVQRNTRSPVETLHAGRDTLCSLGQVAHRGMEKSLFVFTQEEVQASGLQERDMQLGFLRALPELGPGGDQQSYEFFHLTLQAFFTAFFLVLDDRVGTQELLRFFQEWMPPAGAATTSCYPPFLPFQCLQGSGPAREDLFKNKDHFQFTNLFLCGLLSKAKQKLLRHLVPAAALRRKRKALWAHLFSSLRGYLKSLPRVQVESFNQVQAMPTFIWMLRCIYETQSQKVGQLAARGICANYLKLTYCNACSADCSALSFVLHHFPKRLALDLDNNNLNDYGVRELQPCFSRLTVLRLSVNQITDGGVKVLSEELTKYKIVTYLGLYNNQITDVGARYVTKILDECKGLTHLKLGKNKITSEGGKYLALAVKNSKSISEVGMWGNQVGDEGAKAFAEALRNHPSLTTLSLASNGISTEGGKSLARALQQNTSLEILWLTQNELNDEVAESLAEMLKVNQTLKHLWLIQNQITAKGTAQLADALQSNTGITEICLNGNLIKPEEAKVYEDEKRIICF

[8] = molecular target: Tumor necrosis factor (Homo sapiens, UniProt P01375); assay: analog potency on TNFa NF-kB signaling – cell-based, revised, SAR follow-up (AID 2337); format: functional
[9] = molecular target: Nucleotide-binding oligomerization domain-containing protein 2 (Homo sapiens, UniProt Q9HC29); assay: PubChem AID 2334; format: functional
Nucleotide-binding oligomerization domain-containing protein 2, sequence (Q9HC29 whole entry, the tested form may be a part): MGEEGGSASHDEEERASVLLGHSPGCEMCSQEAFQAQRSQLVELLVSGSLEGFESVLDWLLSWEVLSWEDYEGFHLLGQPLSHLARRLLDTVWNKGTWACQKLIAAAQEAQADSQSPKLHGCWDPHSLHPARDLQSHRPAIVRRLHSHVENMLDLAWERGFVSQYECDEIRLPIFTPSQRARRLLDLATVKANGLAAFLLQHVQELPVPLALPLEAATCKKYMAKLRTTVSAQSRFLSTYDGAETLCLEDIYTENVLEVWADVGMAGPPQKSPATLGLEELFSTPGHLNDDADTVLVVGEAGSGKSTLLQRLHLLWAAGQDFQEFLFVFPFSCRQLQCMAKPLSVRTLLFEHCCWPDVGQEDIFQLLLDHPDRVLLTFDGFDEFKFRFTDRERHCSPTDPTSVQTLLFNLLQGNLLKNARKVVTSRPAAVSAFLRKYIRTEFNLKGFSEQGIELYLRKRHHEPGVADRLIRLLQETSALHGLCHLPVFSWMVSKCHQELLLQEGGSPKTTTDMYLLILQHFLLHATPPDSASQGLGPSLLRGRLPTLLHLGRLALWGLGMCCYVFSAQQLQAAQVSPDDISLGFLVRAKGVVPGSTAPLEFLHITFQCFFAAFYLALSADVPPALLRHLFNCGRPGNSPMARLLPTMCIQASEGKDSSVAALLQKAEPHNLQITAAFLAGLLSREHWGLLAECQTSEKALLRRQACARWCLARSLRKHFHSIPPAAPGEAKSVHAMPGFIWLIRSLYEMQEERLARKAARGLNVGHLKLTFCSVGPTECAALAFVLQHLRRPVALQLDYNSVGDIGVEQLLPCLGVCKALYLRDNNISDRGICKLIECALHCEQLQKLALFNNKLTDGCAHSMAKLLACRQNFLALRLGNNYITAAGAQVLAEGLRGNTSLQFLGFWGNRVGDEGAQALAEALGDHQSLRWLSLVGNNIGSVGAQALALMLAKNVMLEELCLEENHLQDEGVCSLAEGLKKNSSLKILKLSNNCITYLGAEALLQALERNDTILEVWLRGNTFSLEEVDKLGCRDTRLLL

[10] = molecular target: Cytochrome P450 2D6 (Homo sapiens, UniProt P10635); assay: qHTS Assay for Inhibitors and Substrates of Cytochrome P450 2D6. [Related pubchem assays: 410 ]; format: ADME; conditions: read-out: Potency
[11] = molecular target: T3, Eukaryotic translation initiation factor 2-alpha kinase 3 (Homo sapiens, UniProt Q9NZJ5); assay: Counterscreen assay for PERK inhibitors: Dose response cell-based high throughput screening assay to measure inhibition of PERK at 6 hours. [Related pubchem assays: 1522, 1416 ]; format: functional
T3 sequence (Q9NZJ5 whole entry): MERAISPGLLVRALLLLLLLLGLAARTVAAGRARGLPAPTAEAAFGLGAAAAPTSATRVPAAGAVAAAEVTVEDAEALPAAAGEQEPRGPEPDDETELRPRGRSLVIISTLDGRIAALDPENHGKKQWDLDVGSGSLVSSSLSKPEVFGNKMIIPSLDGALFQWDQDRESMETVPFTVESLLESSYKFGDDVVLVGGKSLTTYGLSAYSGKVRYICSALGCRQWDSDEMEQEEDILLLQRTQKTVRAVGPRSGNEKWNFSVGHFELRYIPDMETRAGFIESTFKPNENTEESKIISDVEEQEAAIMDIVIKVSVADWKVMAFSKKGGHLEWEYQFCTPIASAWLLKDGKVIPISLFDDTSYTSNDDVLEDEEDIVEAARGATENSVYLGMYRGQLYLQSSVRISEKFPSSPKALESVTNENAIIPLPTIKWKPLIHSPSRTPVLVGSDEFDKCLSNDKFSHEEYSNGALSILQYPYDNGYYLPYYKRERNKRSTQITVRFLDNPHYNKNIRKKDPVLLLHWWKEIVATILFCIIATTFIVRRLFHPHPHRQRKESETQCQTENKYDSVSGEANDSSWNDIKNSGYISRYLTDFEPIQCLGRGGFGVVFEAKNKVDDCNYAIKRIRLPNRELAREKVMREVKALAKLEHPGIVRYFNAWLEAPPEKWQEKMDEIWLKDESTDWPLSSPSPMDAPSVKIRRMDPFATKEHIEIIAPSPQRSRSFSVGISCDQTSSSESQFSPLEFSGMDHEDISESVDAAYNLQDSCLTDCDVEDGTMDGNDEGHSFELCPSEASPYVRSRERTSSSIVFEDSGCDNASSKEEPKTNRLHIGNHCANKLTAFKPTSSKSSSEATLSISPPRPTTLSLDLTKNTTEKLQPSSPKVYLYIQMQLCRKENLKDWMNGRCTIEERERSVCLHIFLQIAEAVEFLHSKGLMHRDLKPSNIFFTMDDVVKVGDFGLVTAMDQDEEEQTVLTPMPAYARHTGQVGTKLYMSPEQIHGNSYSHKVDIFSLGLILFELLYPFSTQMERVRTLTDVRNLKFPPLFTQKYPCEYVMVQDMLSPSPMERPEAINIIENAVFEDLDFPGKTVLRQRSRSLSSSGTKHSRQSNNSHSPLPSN

[12] = molecular target: T3, Eukaryotic translation initiation factor 2-alpha kinase 3; assay: Dose response cell-based high-throughput screening assay to measure PERK inhibition. [Related pubchem assays: 1416 ]; format: functional
[13] = molecular target: DNA dC->dU-editing enzyme APOBEC-3A (Homo sapiens, UniProt P31941); assay: Dose Response confirmation of small molecule APOBEC3A DNA Deaminase Inhibitors via a fluorescence-based single-stranded DNA deaminase assay. [Related pubchem assays (depositor defined):AID493011, AID493024]; format: functional
[14] = molecular target: T4, Insulin-degrading enzyme (Homo sapiens, UniProt P14735); assay: Dose Response: Fluorescence polarization-based cell-based high throughput dose response assay for inhibitors of insulin-degrading enzyme (IDE). [Related pubchem assays: 434962 (Primary screen (IDE inhibitors in singlicate)), 449730 (Counterscreen (Cytotoxicity in triplicate)), 435028 (Confirmation (IDE inhibitors in triplicate)), 434984 (Summary …; format: functional
T4 sequence (P14735 whole entry): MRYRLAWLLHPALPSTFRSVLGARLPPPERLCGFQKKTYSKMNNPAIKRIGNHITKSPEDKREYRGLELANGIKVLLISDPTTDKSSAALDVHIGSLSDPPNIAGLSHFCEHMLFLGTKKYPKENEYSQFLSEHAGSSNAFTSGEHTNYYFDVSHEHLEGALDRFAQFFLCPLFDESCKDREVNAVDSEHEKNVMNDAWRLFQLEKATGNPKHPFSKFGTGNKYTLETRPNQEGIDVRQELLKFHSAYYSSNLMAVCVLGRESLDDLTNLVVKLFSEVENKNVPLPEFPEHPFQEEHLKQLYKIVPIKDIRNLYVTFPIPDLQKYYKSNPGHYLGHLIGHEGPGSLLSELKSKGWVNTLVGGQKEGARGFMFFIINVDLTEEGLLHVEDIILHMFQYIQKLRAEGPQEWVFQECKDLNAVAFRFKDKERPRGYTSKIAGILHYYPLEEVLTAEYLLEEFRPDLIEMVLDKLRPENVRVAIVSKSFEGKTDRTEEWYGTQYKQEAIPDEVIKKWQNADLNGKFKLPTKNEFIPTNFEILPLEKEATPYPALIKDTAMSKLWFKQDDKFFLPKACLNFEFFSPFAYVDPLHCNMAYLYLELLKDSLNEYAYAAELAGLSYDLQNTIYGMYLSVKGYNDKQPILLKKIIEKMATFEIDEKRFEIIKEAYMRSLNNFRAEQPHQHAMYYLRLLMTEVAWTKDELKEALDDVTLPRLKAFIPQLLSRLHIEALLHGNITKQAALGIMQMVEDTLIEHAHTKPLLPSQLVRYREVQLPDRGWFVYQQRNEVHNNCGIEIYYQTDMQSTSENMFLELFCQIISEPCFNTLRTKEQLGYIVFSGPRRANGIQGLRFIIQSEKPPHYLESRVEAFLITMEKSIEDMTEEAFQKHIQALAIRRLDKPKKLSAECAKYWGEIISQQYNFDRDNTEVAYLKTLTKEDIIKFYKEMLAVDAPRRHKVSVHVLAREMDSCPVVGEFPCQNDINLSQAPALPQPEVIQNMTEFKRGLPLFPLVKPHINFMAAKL

[15] = molecular target: DNA dC->dU-editing enzyme APOBEC-3G (Homo sapiens, UniProt Q9HC16); format: functional;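 further: Dose-response counterscreen measuring inhibition of APOBEC3G DNA deaminase activity, run while confirming APOBEC3A inhibitors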
[16] = Counterscreen for IDE inhibitors: Luminescence-based cell-based high throughput dose response assay to identify compounds that are cytotoxic to HEK cells. [Related pubchem assays: 434962 (Primary screen (IDE inhibitors in singlicate)), 449730 (Counterscreen (Cytotoxicity in triplicate)), 435028 (Confirmation (IDE inhibitors in triplicate)) …; format: functional; conditions: HEK293
[17] = molecular target: Metabotropic glutamate receptor 4 (Rattus norvegicus, UniProt P31423); assay: Modulation of the Metabotropic Glutamate Receptor mGluR4: Rat PAM Potency. [Related pubchem assays (depositor defined):AID2437, AID2807]; format: functional
Metabotropic glutamate receptor 4, sequence (P31423 whole entry): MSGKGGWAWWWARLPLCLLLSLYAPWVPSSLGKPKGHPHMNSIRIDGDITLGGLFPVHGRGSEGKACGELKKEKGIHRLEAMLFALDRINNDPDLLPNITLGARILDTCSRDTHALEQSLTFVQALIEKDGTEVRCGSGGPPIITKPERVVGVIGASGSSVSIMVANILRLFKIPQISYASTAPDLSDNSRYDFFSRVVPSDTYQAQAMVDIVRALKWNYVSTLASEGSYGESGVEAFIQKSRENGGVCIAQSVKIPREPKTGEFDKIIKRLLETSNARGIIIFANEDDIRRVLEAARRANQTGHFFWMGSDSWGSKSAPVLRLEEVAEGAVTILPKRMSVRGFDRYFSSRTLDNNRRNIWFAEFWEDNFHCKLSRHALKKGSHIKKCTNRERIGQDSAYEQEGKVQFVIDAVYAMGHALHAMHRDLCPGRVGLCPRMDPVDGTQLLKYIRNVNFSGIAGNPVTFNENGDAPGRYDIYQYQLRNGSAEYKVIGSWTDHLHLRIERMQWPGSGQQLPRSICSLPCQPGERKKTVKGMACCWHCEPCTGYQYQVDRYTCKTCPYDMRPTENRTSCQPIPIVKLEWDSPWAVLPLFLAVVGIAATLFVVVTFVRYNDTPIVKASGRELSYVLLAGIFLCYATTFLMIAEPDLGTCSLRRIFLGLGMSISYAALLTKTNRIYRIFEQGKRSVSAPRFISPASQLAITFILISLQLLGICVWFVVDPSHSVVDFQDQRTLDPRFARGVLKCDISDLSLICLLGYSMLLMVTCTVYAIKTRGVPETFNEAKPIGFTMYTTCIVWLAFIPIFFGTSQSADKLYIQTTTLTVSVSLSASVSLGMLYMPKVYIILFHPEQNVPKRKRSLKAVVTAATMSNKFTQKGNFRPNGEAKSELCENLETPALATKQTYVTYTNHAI

Aspartyl aminopeptidase, sequence (Q8I2J3 whole entry): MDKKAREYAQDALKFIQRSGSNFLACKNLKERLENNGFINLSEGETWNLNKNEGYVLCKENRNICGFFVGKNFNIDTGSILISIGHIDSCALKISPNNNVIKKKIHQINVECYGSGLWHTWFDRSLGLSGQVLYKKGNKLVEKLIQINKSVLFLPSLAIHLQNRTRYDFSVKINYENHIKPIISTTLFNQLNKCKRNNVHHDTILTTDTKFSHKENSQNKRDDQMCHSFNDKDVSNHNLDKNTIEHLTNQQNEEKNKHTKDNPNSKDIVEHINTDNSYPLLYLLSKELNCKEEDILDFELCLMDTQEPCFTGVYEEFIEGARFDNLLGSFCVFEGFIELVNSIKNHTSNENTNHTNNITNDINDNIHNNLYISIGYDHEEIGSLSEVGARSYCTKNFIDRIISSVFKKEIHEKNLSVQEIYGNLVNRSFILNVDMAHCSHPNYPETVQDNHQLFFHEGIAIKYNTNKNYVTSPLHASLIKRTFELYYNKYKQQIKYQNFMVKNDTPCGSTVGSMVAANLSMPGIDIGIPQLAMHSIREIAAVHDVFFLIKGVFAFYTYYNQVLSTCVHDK
Procathepsin L, sequence (P07711 whole entry): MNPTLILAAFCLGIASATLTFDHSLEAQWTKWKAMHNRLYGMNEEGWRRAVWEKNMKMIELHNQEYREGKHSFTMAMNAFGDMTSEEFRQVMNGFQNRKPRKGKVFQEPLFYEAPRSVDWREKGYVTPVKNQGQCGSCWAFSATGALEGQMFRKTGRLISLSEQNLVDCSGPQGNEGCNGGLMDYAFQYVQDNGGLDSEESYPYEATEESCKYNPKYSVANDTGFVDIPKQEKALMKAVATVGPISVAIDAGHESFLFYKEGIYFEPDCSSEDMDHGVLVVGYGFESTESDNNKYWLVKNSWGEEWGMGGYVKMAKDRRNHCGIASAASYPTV

Structure (SMILES): CN1CCc2cccc3c2[C@H]1Cc1ccc(O)c(O)c1-3 [APOMORPHINE]
IC50 [1]: 3.67 µM (active)
IC50 [2]: > 59.6 µM (not active)
EC50 [3]: 3.29 µM (active)
IC50 [4]: 20.2 µM (active)
EC50 [5]: > 300 µM (inconclusive)

Structure (SMILES): CSC(S)=NN=Cc1ccc(Br)cc1
IC50 [6]: > 20 µM (inactive)
IC50 [7]: > 20 µM (inactive)
IC50 [8]: > 20 µM (inactive)
IC50 [9]: > 20 µM (inactive)

Structure (SMILES): CCN(CC)C(=O)c1ccc(/C=C/c2c[nH]c3ccccc23)[n+](C)c1
IC50 [13]: 1.96 µM (active)
IC50 [14]: 16.1 µM (not active)
IC50 [15]: 2.1 µM (active)
IC50 [16]: > 55.7 µM (not active)

Other lines, results leading:

AC50 [10]: 31.6 µM (inconclusive)
Structure (SMILES): CC(C)=CCc1c(O)cc(O)c2c1O[C@H](c1ccccc1)CC2=O [GLABRANIN]

EC50 [11]: > 55.7 µM (not active)
EC50 [12]: > 55.7 µM (not active)
Structure (SMILES): C[C@]12CS(=O)(=O)C[C@H]1SC(=S)N2c1ccccc1

EC50 [17]: 1.25 µM (active)
Structure (SMILES): O=C(Nc1ccc(Cl)c(Cl)c1)c1ccccn1
